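At the GI50, growth is halved. The concentration for full growth arrest is given as TGI.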
What was measured:
Test in all cases: NCI-60 cell line screen, 384-well format
CAKI-1 renal = test system: CAKI-1 renal
NCI-H522 lung = test system: NCI-H522 lung
MALME-3M melanoma = test system: MALME-3M melanoma
SF-268 CNS = test system: SF-268 CNS
SW-620 colon = test system: SW-620 colon
OVCAR-8 ovarian = test system: OVCAR-8 ovarian
RXF 393 renal = test system: RXF 393 renal
NCI-H226 lung = test system: NCI-H226 lung
SNB-19 CNS = test system: SNB-19 CNS
OVCAR-4 ovarian = test system: OVCAR-4 ovarian
IGROV1 ovarian = test system: IGROV1 ovarian
K-562 leukemia = test system: K-562 leukemia
T-47D breast = test system: T-47D breast
MCF7 breast = test system: MCF7 breast
MOLT-4 leukemia = test system: MOLT-4 leukemia
U251 glioblastoma = test system: U251 glioblastoma
NCI-H322M lung = test system: NCI-H322M lung
HCT-116 colon = test system: HCT-116 colon
A549 NSCLC = test system: A549 NSCLC
LOX IMVI melanoma = test system: LOX IMVI melanoma
TK-10 renal = test system: TK-10 renal
UACC-257 melanoma = test system: UACC-257 melanoma
NCI-H460 NSCLC = test system: NCI-H460 NSCLC
SK-MEL-2 melanoma = test system: SK-MEL-2 melanoma
SK-OV-3 ovarian = test system: SK-OV-3 ovarian
M14 melanoma = test system: M14 melanoma
BT-549 breast = test system: BT-549 breast
SF-295 CNS = test system: SF-295 CNS
SK-MEL-28 melanoma = test system: SK-MEL-28 melanoma
SF-539 CNS = test system: SF-539 CNS
MDA-MB-468 breast = test system: MDA-MB-468 breast
SR leukemia = test system: SR leukemia
COLO 205 colon = test system: COLO 205 colon
A498 renal = test system: A498 renal
RPMI-8226 leukemia = test system: RPMI-8226 leukemia
MDA-MB-435 melanoma = test system: MDA-MB-435 melanoma
786-0 renal = test system: 786-0 renal
NCI-H23 lung = test system: NCI-H23 lung
HCC-2998 colon = test system: HCC-2998 colon
MDA-MB-231 breast = test system: MDA-MB-231 breast
HL-60(TB) leukemia = test system: HL-60(TB) leukemia
PC-3 prostate = test system: PC-3 prostate
SN12C renal = test system: SN12C renal
UO-31 renal = test system: UO-31 renal
HOP-92 NSCLC = test system: HOP-92 NSCLC
KM12 colon = test system: KM12 colon
HT29 colon = test system: HT29 colon
ACHN renal = test system: ACHN renal
NCI/ADR-RES ovarian = test system: NCI/ADR-RES ovarian
OVCAR-5 ovarian = test system: OVCAR-5 ovarian
UACC-62 melanoma = test system: UACC-62 melanoma
CCRF-CEM leukemia = test system: CCRF-CEM leukemia
DU-145 prostate = test system: DU-145 prostate
HCT-15 colon = test system: HCT-15 colon
SK-MEL-5 melanoma = test system: SK-MEL-5 melanoma
HOP-62 NSCLC = test system: HOP-62 NSCLC
OVCAR-3 ovarian = test system: OVCAR-3 ovarian

Compound: C[C@H](c1ccc(Cl)cc1N)N1C(=O)c2cc(I)ccc2N(CCCN2CCN(C)CC2)C(=O)[C@@H]1c1ccc(Cl)cc1
- GI50 (CAKI-1 renal): 482 nM
- TGI (CAKI-1 renal): 1780 nM
- GI50 (NCI-H522 lung): 1540 nM
- TGI (NCI-H522 lung): 2880 nM
- GI50 (MALME-3M melanoma): 1060 nM
- TGI (MALME-3M melanoma): 2250 nM
- GI50 (SF-268 CNS): 1770 nM
- TGI (SF-268 CNS): 3160 nM
- GI50 (SW-620 colon): 1780 nM
- TGI (SW-620 colon): 3190 nM
- GI50 (OVCAR-8 ovarian): 1730 nM
- TGI (OVCAR-8 ovarian): 3120 nM
- GI50 (RXF 393 renal): 848 nM
- TGI (RXF 393 renal): 2120 nM
- GI50 (NCI-H226 lung): 649 nM
- TGI (NCI-H226 lung): 1980 nM
- GI50 (SNB-19 CNS): 1710 nM
- TGI (SNB-19 CNS): 3090 nM
- GI50 (OVCAR-4 ovarian): 1560 nM
- TGI (OVCAR-4 ovarian): 2900 nM
- GI50 (IGROV1 ovarian): 1210 nM
- TGI (IGROV1 ovarian): 2470 nM
- GI50 (K-562 leukemia): 1290 nM
- TGI (K-562 leukemia): 2580 nM
- GI50 (T-47D breast): 1460 nM
- TGI (T-47D breast): 2780 nM
- GI50 (MCF7 breast): 1060 nM
- TGI (MCF7 breast): 2260 nM
- GI50 (MOLT-4 leukemia): 144 nM
- TGI (MOLT-4 leukemia): 279 nM
- GI50 (U251 glioblastoma): 1640 nM
- TGI (U251 glioblastoma): 3020 nM
- GI50 (NCI-H322M lung): 1770 nM
- TGI (NCI-H322M lung): 3170 nM
- GI50 (HCT-116 colon): 613 nM
- TGI (HCT-116 colon): 1950 nM
- GI50 (A549 NSCLC): 1060 nM
- TGI (A549 NSCLC): 2260 nM
- GI50 (LOX IMVI melanoma): 1700 nM
- TGI (LOX IMVI melanoma): 3090 nM
- GI50 (TK-10 renal): 1580 nM
- TGI (TK-10 renal): 2920 nM
- GI50 (UACC-257 melanoma): 1220 nM
- TGI (UACC-257 melanoma): 2470 nM
- GI50 (NCI-H460 NSCLC): 670 nM
- TGI (NCI-H460 NSCLC): 2000 nM
- GI50 (SK-MEL-2 melanoma): 1590 nM
- TGI (SK-MEL-2 melanoma): 2940 nM
- GI50 (SK-OV-3 ovarian): 1520 nM
- TGI (SK-OV-3 ovarian): 2850 nM
- GI50 (M14 melanoma): 1140 nM
- TGI (M14 melanoma): 2360 nM
- GI50 (BT-549 breast): 1550 nM
- TGI (BT-549 breast): 2900 nM
- GI50 (SF-295 CNS): 1700 nM
- TGI (SF-295 CNS): 3080 nM
- GI50 (SK-MEL-28 melanoma): 1590 nM
- TGI (SK-MEL-28 melanoma): 2950 nM
- GI50 (SF-539 CNS): 1640 nM
- TGI (SF-539 CNS): 3010 nM
- GI50 (MDA-MB-468 breast): 1710 nM
- TGI (MDA-MB-468 breast): 3090 nM
- GI50 (SR leukemia): 144 nM
- TGI (SR leukemia): 280 nM
- GI50 (COLO 205 colon): 1640 nM
- TGI (COLO 205 colon): 3020 nM
- GI50 (A498 renal): 779 nM
- TGI (A498 renal): 2040 nM
- GI50 (RPMI-8226 leukemia): 20.9 nM
- TGI (RPMI-8226 leukemia): 191 nM
- GI50 (MDA-MB-435 melanoma): 1710 nM
- TGI (MDA-MB-435 melanoma): 3080 nM
- GI50 ([…]-0 renal): 1600 nM
- TGI (786-0 renal): 2960 nM
- GI50 (NCI-H23 lung): 1570 nM
- TGI (NCI-H23 lung): 2920 nM
- GI50 (HCC-2998 colon): 1250 nM
- TGI (HCC-2998 colon): 2500 nM
- GI50 (MDA-MB-231 breast): 1610 nM
- TGI (MDA-MB-231 breast): 2960 nM
- GI50 (HL-60(TB) leukemia): 255 nM
- TGI (HL-60(TB) leukemia): 641 nM
- GI50 (PC-3 prostate): 1660 nM
- TGI (PC-3 prostate): 3040 nM
- GI50 (SN12C renal): 1590 nM
- TGI (SN12C renal): 2940 nM
- GI50 (UO-31 renal): 1150 nM
- TGI (UO-31 renal): 2370 nM
- GI50 (HOP-92 NSCLC): 1130 nM
- TGI (HOP-92 NSCLC): 2340 nM
- GI50 (KM12 colon): 1560 nM
- TGI (KM12 colon): 2920 nM
- GI50 (HT29 colon): 1680 nM
- TGI (HT29 colon): 3080 nM
- GI50 (ACHN renal): 965 nM
- TGI (ACHN renal): 2160 nM
- GI50 (NCI/ADR-RES ovarian): 1590 nM
- TGI (NCI/ADR-RES ovarian): 2950 nM
- GI50 (OVCAR-5 ovarian): 1770 nM
- TGI (OVCAR-5 ovarian): 3160 nM
- GI50 (UACC-62 melanoma): 591 nM
- TGI (UACC-62 melanoma): 1950 nM
- GI50 (CCRF-CEM leukemia): 1410 nM
- TGI (CCRF-CEM leukemia): 2720 nM
- GI50 (DU-145 prostate): 1760 nM
- TGI (DU-145 prostate): 3160 nM
- GI50 (HCT-15 colon): 1680 nM
- TGI (HCT-15 colon): 3060 nM
- GI50 (SK-MEL-5 melanoma): 1110 nM
- TGI (SK-MEL-5 melanoma): 2310 nM
- GI50 (HOP-62 NSCLC): 1620 nM
- TGI (HOP-62 NSCLC): 2980 nM
- GI50 (OVCAR-3 ovarian): 1450 nM
- TGI (OVCAR-3 ovarian): 2780 nM
